The values below come from US11529319B2, “Methods and compositions for treating neurological conditions” (priority 2017, dated 2022).

The subject of this test is p38 MAPK/MAPKAPK2/TSC2/mTORC1/S6K1 cascade. Briefly: Western blots of eNMDAR-triggered signaling. The settings on record: compared with Memantine. In kind it is cell-based. The text has this: This experiment was replicated 4 times with similar results and quantified in FIG. 20C.

Take `CCC12CC3(N)CC(CC)(C1)CC(O[N+](=O)[O-])(C3)C2` [NitroSynapsin]: the “eNMDAR-triggered signaling that inactivates TSC2 (p38 MAPK-TSC-Rheb-mTORC1-S6K1 pathway)” value was “correction of activity”. Further, the “eNMDAR-triggered signaling that inactivates TSC2 (p38 MAPK-TSC-Rheb-mTORC1-S6K1 pathway)” value (listed as NitroMemantine) is on record as “to a greater degree than Memantine”.
